Source: ChEMBL document CHEMBL5316306 (J Med Chem, 2023)
Calls of active or inactive are those of the source. The rule behind the calls is not given here.

What was measured:
[1] = molecular target: T1, Proteasome Macropain subunit MB1 (Homo sapiens, UniProt P28074); assay: Inhibition of human 20s constitutive proteasome beta-5c
T1 sequence (P28074 whole entry): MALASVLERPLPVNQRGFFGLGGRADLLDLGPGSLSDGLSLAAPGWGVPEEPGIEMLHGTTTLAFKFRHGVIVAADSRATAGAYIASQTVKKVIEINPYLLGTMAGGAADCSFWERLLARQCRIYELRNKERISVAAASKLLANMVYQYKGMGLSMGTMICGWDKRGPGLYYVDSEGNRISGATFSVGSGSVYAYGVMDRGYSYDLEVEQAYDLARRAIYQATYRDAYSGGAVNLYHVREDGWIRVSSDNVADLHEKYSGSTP

[2] = molecular target: T2, Proteasome subunit beta type-8 (Homo sapiens, UniProt P28062); assay: Inhibition of human 20s immunoproteasome beta-5i subunit
T2 sequence (P28062 whole entry): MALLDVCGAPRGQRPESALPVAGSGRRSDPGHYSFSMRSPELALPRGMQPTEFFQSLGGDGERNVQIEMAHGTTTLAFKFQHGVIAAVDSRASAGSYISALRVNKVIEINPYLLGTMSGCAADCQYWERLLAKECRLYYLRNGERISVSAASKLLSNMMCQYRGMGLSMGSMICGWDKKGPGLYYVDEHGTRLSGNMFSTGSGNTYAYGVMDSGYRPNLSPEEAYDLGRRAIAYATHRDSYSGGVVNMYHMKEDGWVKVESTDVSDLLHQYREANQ

[3] = tested on: RPMI-8226; assay: Cytotoxicity against human RPMI-8226 cells after 72 hrs by celltitre-glo assay; type: functional, cell-based; details: RPMI-8226, 72 h
[4] = tested on: MM1.S; assay: Cytotoxicity against human MM1.S cells after 72 hrs by celltitre-glo assay; type: functional, cell-based
[5] = molecular target: T3, Proteasome subunit beta type-8 (Homo sapiens) (UniProt P28062); details: dose 250.0 nM, time <= 90.0 min
T3 sequence (whole entry): T2 sequence (P28062 whole entry)

[6] = tested on: HepG2; assay: Cytotoxicity against human HepG2 cells after 72 hrs by celltitre-glo assay; type: functional, cell-based; details: HepG2, 72 h
[7] = molecular target: T4, Proteasome Macropain subunit MB1 (Homo sapiens) (UniProt P28074); assay: Time dependent inhibition of human 20s constitutive proteasome beta-5c assessed as restoration of enzyme activity at 10 nM using suc-LLVY-AMC as substrate; details: time <= 90.0 min, TDE = time-dependent effect
T4 sequence (whole entry): T1 sequence (P28074 whole entry)

[8] = molecular target: T4, Proteasome Macropain subunit MB1 (Homo sapiens); assay: Inhibition of 20s constitutive proteasome beta-5c (unknown origin) assessed as recovery half life time
[9] = molecular target: T2, Proteasome subunit beta type-8; assay: Inhibition of 20s immunoproteasome beta-5i subunit (unknown origin)
[10] = molecular target: T4, Proteasome Macropain subunit MB1 (Homo sapiens); assay: Inhibition of 20s constitutive proteasome beta-5c in human HepG2 cells incubated by proteasome glo assay kit analysis; type: cell-based; details: time <= 1.0 hrs
[11] = molecular target: Trypsin (Homo sapiens) (UniProt P07477+P07478+P35030); assay: Inhibition of human trypsin at 33.3 uM; type: protein assay
[12] = tested on: MM1.S; assay: Synergistic cytotoxic activity against human MM1.S cells after 72 hrs in presence of 0.02 uM of (S)-N5-(tert-butyl)-N1-((S)-1-(((4-fluoronaphthalen-1-yl)methyl)amino)-3-methoxy-1-oxopropan-2-yl)-2-((4-methylphenyl)sulfonamido)pentanediamide by celltitre-glo assay; type: functional, cell-based
[13] = tested on: RPMI-8226; assay: Synergistic cytotoxic activity against human RPMI-8226 cells after 72 hrs in presence of 0.25 uM of (S)-N5-(tert-butyl)-N1-((S)-1-(((4-fluoronaphthalen-1-yl)methyl)amino)-3-methoxy-1-oxopropan-2-yl)-2-((4-methylphenyl)sulfonamido)pentanediamide by celltitre-glo assay; type: functional, cell-based; details: RPMI-8226, 72 h
[14] = molecular target: Chymotrypsin (Homo sapiens) (UniProt Q99895+P17538+P40313+Q6GPI1); assay: Inhibition of human chymotrypsin at 11.1 uM; type: protein assay
[15] = molecular target: T5, Proteasome subunit beta type-10 (Homo sapiens, UniProt P40306); assay: Inhibition of human 20s immunoproteasome beta-2i subunit
T5 sequence (P40306 whole entry): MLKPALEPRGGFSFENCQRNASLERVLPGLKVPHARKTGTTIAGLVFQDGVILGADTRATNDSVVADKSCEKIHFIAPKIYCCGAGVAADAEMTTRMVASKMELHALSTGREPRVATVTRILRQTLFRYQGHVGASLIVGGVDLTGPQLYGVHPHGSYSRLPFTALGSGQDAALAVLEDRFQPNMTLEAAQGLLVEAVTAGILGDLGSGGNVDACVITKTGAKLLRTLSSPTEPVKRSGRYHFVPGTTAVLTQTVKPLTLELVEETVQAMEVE

[16] = molecular target: T6, Proteasome subunit beta type-9 (Homo sapiens, UniProt P28065); assay: Inhibition of human 20s immunoproteasome beta-1i subunit
T6 sequence (P28065 whole entry): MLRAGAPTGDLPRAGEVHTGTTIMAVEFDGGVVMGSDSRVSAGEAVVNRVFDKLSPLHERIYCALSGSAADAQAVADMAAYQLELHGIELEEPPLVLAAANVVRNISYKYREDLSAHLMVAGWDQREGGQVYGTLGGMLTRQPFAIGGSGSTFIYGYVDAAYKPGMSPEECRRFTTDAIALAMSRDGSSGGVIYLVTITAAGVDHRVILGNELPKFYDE

[17] = molecular target: T4, Proteasome Macropain subunit MB1 (Homo sapiens); assay: Inhibition of human 20s constitutive proteasome beta-5c assessed as restoration of enzyme activity at 2 nM incubated for 1 hr followed by compound removal by dialysis measured after 1 hr
[18] = molecular target: T4, Proteasome Macropain subunit MB1 (Homo sapiens); assay: Time dependent inhibition of human 20s constitutive proteasome beta-5c assessed as restoration of enzyme activity at 10 nM using suc-LLVY-AMC as substrate incubated upto 90 mins
[19] = molecular target: Procathepsin L (Homo sapiens) (UniProt P07711); assay: Inhibition of human cathepsin L at 100 uM
[20] = tested on: PBMC; assay: Cytotoxicity against human PBMC cells expressing 20s immunoproteasome beta-5i after 72 hrs by celltitre-glo assay; type: functional, cell-based
[21] = molecular target: T3, Proteasome subunit beta type-8 (Homo sapiens); assay: Inhibition of 20s immunoproteasome beta-5i in human PBMC cells incubated by proteasome glo assay kit analysis; type: cell-based; details: time <= 1.0 hrs
[22] = molecular target: T3, Proteasome subunit beta type-8 (Homo sapiens); assay: Time dependent inhibition of human 20s immunoproteasome beta-5i subunit assessed as restoration of enzyme activity at 250 nM using Ac-ANW-AMC as substrate incubated upto 90 mins
[23] = molecular target: T1, Proteasome Macropain subunit MB1; assay: Inhibition of 20s constitutive proteasome beta-5c (unknown origin)

Chain of Procathepsin L (Homo sapiens) (P07711 114-333 limits assumed): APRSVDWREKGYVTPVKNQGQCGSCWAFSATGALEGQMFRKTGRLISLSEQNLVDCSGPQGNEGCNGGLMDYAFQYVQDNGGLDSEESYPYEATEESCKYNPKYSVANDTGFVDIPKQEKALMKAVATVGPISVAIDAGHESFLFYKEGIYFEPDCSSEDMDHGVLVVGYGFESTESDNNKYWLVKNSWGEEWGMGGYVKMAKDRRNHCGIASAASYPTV

Row | Compound | IC50 [1] | IC50 [2] | further results
1 | CC(C)(C)NC(=O)C[C@H](NC(=O)C(=O)c1ccccc1)C(=O)NCc1cccc(B(O)O)c1 | 0.24 µM | > 100 µM | 
2 | CC(C)(C)NC(=O)C[C@H](NC(=O)CN1CCOCC1)C(=O)NCc1cccc(B(O)O)c1 | > 100 µM | > 100 µM | 
3 | Cc1ccc(S(=O)(=O)N[C@@H](CC(=O)NC(C)(C)C)C(=O)Nc2ccc(B(O)O)cc2)cc1 | > 100 µM | > 100 µM | 
4 | Cc1ccc(S(=O)(=O)N[C@@H](CC(=O)NC(C)(C)C)C(=O)NCc2cccc(O)c2)cc1 | > 100 µM | > 100 µM | 
5 | Cc1ccc(S(=O)(=O)N[C@@H](CC(=O)NC(C)(C)C)C(=O)NCc2ccccc2)cc1 | > 100 µM | > 100 µM | 
6 | CC(C)C[C@H](NC(=O)[C@H](Cc1ccccc1)NC(=O)c1cnccn1)B(O)O [BORTEZOMIB] |  |  | EC50 [3]: 0.004 µM; EC50 [4]: 0.002 µM; TDI [5]: Tde; EC50 [6]: 0.013 µM; TDI [7]: Tde; TIME [8]: 1.83 h
7 | CC(C)C[C@H](NC(=O)CN1CCOCC1)C(=O)N[C@@H](C[C@H]1CC[C@H](C2CCCCC2)CC1)C(=O)N[C@@H](Cc1ccccc1)C(=O)N[C@@H](C)C(=O)[C@@]1(C)CO1 |  |  | IC50 [9]: 22.8 µM
8 | Cc1ccc(S(=O)(=O)N[C@@H](CC(=O)NC(C)(C)C)C(=O)NCc2cccc(C(=O)O)c2)cc1 | > 100 µM | > 100 µM | 
9 | Cc1cc(C(=O)N[C@@H](CC(=O)NC(C)(C)C)C(=O)NCc2cccc(B(O)O)c2)no1 | 5.9 µM | > 100 µM | 
10 | Cc1ccc(S(=O)(=O)N[C@@H](CC(=O)NC(C)(C)C)C(=O)NCc2cccs2)cc1 | > 100 µM | > 100 µM | 
11 | CC(C)(C)NC(=O)C[C@H](NC(=O)C(=O)C1CC1)C(=O)NCc1cccc(B(O)O)c1 | 24.1 µM | > 100 µM | 
12 | CC(C)(C)NC(=O)C[C@H](NC(=O)CCc1ccc(F)cc1)C(=O)NCc1cccc(B(O)O)c1 | 0.75 µM | 47.9 µM | 
13 | Cc1ccc(S(=O)(=O)N[C@@H](CC(=O)NC(C)(C)C)C(=O)NCc2cccc(F)c2)cc1 | > 100 µM | > 100 µM | 
14 | Cc1ccc(S(=O)(=O)N[C@@H](CC(=O)NC(C)(C)C)C(=O)NCc2ccco2)cc1 | > 100 µM | > 100 µM | 
15 | Cc1ccc(S(=O)(=O)N[C@@H](CC(=O)NC(C)(C)C)C(=O)NCc2ccc(B(O)O)s2)cc1 | > 100 µM | > 100 µM | 
16 | CC(C)(C)NC(=O)C[C@H](NC(=O)c1cnccn1)C(=O)NCc1cccc(B(O)O)c1 | > 100 µM | > 100 µM | 

Row | Compound | IC50 [1] | IC50 [2] | further results
17 | COC[C@H](NC(=O)C(=O)c1c[nH]c2ccccc12)C(=O)NCc1cccc(B(O)O)c1 | 3 µM | 45.2 µM | 
18 | CC(C)(C)NC(=O)C[C@H](NC(=O)c1cc(-c2ccccc2)ccn1)C(=O)NCc1cccc(B(O)O)c1 | 3.8 µM | 22.8 µM | 
19 | Cc1ncc(C(=O)N[C@@H](CC(=O)NC(C)(C)C)C(=O)NCc2cccc(B(O)O)c2)s1 | > 100 µM | > 100 µM | 
20 | CC(C)(C)NC(=O)C[C@H](NC(=O)C(=O)c1c[nH]c2ccccc12)C(=O)NCc1cccc(B(O)O)c1 | 0.01 µM | 7.1 µM | EC50 [3]: 1.67 µM; inhibition [10]: Dose-Dependent Effect; inhibition [11]: inactive; EC50 [12]: 0.01 µM; EC50 [13]: 0.173 µM; EC50 [4]: 0.057 µM; inhibition [14]: inactive; IC50 [15]: > 33.3 µM; IC50 [16]: > 33.3 µM; inhibition [17]: inactive; TDI [18]: inactive; inhibition [19]: inactive; EC50 [20]: > 50 µM; inhibition [21]: Dose-Dependent Effect; EC50 [6]: 3.2 µM; TDI [22]: inactive
21 | Cc1ccc(S(=O)(=O)N[C@@H](CC(=O)NC(C)(C)C)C(=O)Nc2cccc(B(O)O)c2)cc1 | > 100 µM | > 100 µM | 
22 | CC(C)(C)NC(=O)C[C@H](NC(=O)Cc1c[nH]c2ccccc12)C(=O)NCc1cccc(B(O)O)c1 | 0.7 µM | 69.2 µM | 
23 | Cc1ccc(S(=O)(=O)N[C@@H](CC(=O)NC(C)(C)C)C(=O)NCc2ccc(B(O)O)o2)cc1 | 2.6 µM | 57.2 µM | 
24 | CC(C)(C)NC(=O)CC[C@H](NC(=O)C(=O)c1c[nH]c2ccccc12)C(=O)NCc1cccc(B(O)O)c1 | 0.085 µM | 11.3 µM | EC50 [3]: 15 µM; EC50 [4]: 0.76 µM; IC50 [15]: > 33.3 µM; IC50 [16]: > 33.3 µM; EC50 [6]: 49.1 µM
25 | Cc1ccc(S(=O)(=O)N[C@@H](CC(=O)NC(C)(C)C)C(=O)NCc2ccc(B(O)O)cc2)cc1 | > 100 µM | > 100 µM | 
26 | COc1ccc(Cc2noc(CN(C(=O)COc3ccc(Br)cc3)C(C)C)n2)cc1OC |  |  | IC50 [23]: 0.037 µM
27 | CC(C)(C)NC(=O)C[C@H](NC(=O)c1cc(Cl)ccc1Cl)C(=O)NCc1cccc(B(O)O)c1 | 1.4 µM | 57.7 µM | 
28 | Cc1ccc(S(=O)(=O)N[C@@H](CC(=O)NC(C)(C)C)C(=O)NCc2cccc(C(F)(F)F)c2)cc1 | > 100 µM | > 100 µM | 
29 | CC(C)(C)NC(=O)C[C@H](NC(=O)c1ccccc1)C(=O)NCc1cccc(B(O)O)c1 | 3.8 µM | > 100 µM | 
30 | COC[C@H](NC(=O)c1cc(C)on1)C(=O)N[C@@H](COC)C(=O)N[C@@H](CC(C)C)C(=O)[C@@]1(C)CO1 |  |  | IC50 [9]: 0.3 µM; IC50 [23]: 0.02 µM
31 | Cc1ccc(S(=O)(=O)N[C@@H](CC(=O)NC(C)(C)C)C(=O)NCc2cccc(B(O)O)c2)cc1 | 0.21 µM | > 100 µM | 
32 | CCCc1ccc(OCC(=O)N(Cc2nc(-c3cccnc3)no2)C(C)C)cc1 | 0.005 µM | > 100 µM | IC50 [9]: 2.17 µM; IC50 [23]: 0.027 µM
